Source: patent publication US11752138B2 (VANDERBILT UNIVERSITY, priority 2020, dated 2023)

Legend:
Human LDHA = Human LDHA (Homo sapiens (Human), UniProt P00338); test: human LDHA primary biochemical assay (Example 1); conditions: biochemical LDHA inhibitory activity, assay of Example 1
From the text: This example describes a human LDHA primary biochemical assay employed in the characterization of a compound of Formula I in an embodiment of the dislcosure.
Test compounds were placed in a Greiner Bio-One (Monroe, N.C.) 1536-well black solid bottom assay plate. 200 millimolar (mM) Tris HCl, pH 7.4, 100 micromolar (μM) EDTA and 0.01% TWEEN-20™, final concentration, was used as the assay buffer. The LDHA reagent was 2 nanomolar (nM) Human LDHA (Meridian Life Science, Inc., Memphis, Tenn.), final concentration, in assay buffer. The substrate reagent was 0.06 mM NADH and 0.2 mM sodium pyruvate, final concentration, in assay buffer. The resazurin/diaphorase coupling reagent was 0.037 mM resazurin and 0.133 milligrams per milliliter (mg/mL) diaphorase, final concentration, in assay buffer. The inhibition of LDHA activity was measured by fluorescence emission. […]

LDH = LDH activity in mice liver lysates, rate of conversion of glyoxylate to oxalate (FIG. 2); type: in vivo; conditions: 5-10 mg/kg, oral daily dose for 5 days; liver harvested two hours after last dose; wild type and AGXT null mice
Description: FIG. 2. LDH activity as measured by the rate of conversion of glyoxylate (G) to oxalate (O) in mice livers. Wild type mice, closed circles; AGXT null mice; open squares. […] Liver was harvested from animals two hours after delivery of the last drug dose. Enzyme assays were performed with liver lysates in 0.1M Glycine-Sodium hydroxide buffer, pH 9.6, 20 mM glyoxylate, 3.25 mM NAD+, and the rate of increase in absorbance at 340 nm monitored at room temperature

Row | IC50 (Human LDHA) [nM] | Structure (SMILES) | suppression of oxalate production in mice liver (LDH activity, glyoxylate to oxalate) (LDH)
1 | < 100 | Cc1ccc(C(=O)Cc2cccc(-c3nn(-c4nc(C(=O)O)cs4)c(CC4CC4)c3Cc3ccc(S(N)(=O)=O)c(F)c3)c2)s1 [Compound 242, 2-(5-(cyclopropylmethyl)-4-(3-fluoro-4-sulfamoylbenzyl)-3-(3-(2-(5-methylthiophen-2-yl)-2-oxoethyl)phenyl)-1H-pyrazol-1-yl)thiazole-4-carboxylic acid] | –
2 | < 100 | Cc1nc(C#Cc2cccc(-c3nn(-c4nc(C(=O)O)cs4)c(CCC4CC4)c3Cc3ccc(S(N)(=O)=O)c(F)c3)c2)cs1 [Compound 243, 2-(5-(2-cyclopropylethyl)-4-(3-fluoro-4-sulfamoylbenzyl)-3-(3-((2-methylthiazol-4-yl)ethynyl)phenyl)-1H-pyrazol-1-yl)thiazole-4-carboxylic acid] | –

Row | Structure (SMILES) | IC50 (Human LDHA) [nM] | suppression of oxalate production in mice liver (LDH activity, glyoxylate to oxalate) (LDH)
3 | Cc1ccc(C#Cc2cccc(-c3nn(-c4nc(C(=O)O)co4)c(CC4CC4)c3Cc3ccc(S(N)(=O)=O)c(F)c3)c2)s1 [Compound 247, 2-(5-(cyclopropylmethyl)-4-(3-fluoro-4-sulfamoylbenzyl)-3-(3-((5-methylthiophen-2-yl)ethynyl)phenyl)-1H-pyrazol-1-yl)oxazole-4-carboxylic acid] | < 100 | Maximal suppression of oxalate production
